Source: publication PMC9005971, “Discovery of 2-(4-Acrylamidophenyl)-Quinoline-4-Carboxylic Acid Derivatives as Potent SIRT3 Inhibitors” (Frontiers in Chemistry, 2022)

Tests used:
SIRT1 = molecular target: T1, SIRT1 (Homo sapiens, UniProt Q96EB6); conditions: ref Galli et al., 2012; cited from earlier work
T1 sequence (Q96EB6 1-747): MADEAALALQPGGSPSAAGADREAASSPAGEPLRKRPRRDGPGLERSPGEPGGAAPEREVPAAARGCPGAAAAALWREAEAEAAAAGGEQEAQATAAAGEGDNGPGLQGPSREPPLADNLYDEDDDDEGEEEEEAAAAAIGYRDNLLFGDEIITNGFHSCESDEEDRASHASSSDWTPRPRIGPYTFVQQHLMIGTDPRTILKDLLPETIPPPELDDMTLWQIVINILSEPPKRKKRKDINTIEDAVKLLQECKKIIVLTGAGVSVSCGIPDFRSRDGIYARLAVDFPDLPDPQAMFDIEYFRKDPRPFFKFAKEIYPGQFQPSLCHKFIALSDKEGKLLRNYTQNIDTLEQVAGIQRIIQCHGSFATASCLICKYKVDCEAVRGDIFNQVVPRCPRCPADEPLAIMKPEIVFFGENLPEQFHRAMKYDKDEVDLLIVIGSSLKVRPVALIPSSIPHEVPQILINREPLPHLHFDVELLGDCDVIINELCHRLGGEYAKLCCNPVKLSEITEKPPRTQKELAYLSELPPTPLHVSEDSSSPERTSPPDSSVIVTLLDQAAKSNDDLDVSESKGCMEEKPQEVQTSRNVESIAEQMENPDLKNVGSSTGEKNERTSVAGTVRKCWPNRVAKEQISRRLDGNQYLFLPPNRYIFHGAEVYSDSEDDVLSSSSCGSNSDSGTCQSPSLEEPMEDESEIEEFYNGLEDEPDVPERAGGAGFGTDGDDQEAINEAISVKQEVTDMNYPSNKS

SIRT2 = molecular target: T2, SIRT2 (Homo sapiens, UniProt Q8IXJ6); conditions: ref Galli et al., 2012; cited from earlier work
T2 sequence (Q8IXJ6 1-389): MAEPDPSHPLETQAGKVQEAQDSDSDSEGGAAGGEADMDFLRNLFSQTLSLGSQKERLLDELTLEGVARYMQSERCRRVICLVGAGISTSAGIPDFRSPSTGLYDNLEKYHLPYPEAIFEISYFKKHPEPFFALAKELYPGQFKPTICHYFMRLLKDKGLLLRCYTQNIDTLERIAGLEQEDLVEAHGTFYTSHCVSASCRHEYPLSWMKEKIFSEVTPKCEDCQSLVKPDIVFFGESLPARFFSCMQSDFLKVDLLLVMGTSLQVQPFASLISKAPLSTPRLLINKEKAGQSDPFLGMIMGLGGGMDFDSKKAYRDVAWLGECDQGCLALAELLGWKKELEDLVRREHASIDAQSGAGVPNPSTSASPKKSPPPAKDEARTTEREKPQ

SIRT3 = molecular target: T3, SIRT3 (Homo sapiens, UniProt Q9NTG7); test: SIRT3 enzyme inhibitory assay (fluorescence); assay type: biochemical; conditions: dose of 10 μM; mean of three experiments; read-out: SIRT3 percentage inhibitory rate
T3 sequence (Q9NTG7 1-399): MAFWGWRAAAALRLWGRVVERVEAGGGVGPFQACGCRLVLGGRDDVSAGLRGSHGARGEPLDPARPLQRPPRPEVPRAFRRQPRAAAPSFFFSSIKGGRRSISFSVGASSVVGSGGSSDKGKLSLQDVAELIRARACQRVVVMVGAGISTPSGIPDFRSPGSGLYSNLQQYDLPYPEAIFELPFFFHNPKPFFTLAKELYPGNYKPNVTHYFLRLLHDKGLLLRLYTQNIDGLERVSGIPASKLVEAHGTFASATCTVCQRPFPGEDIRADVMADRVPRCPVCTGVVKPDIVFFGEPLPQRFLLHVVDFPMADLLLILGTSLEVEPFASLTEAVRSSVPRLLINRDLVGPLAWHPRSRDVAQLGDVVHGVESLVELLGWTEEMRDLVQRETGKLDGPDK
Experimental: All of the enzymatic reactions were conducted at 37°C for 30 min. […] The compounds were diluted in 10% DMSO and 5 ul of the dilution was added to each reaction mixture (50 ul). The assay was performed by quantitating the amount of fluorescent product generated from the enzyme reaction. Fluorescence intensity is then analyzed at excitation wavelength of 350–360 nm and emission wavelength of 450–460 nm on a SpectraMax M5 microtiter plate reader. The IC50 values were calculated using Prism GraphPad software.

THP-1 cells = test: In vitro antiproliferative CCK-8 assay, THP-1; assay type: cell-based; conditions: Homo sapiens; for inhibition at 1 µM: dose of 1 μM, mean of three experiments, read-out: THP-1 percentage inhibitory rate
Experimental: (§1) The proliferation of THP-1, MOLM-13, SEM and MV4-11 cells was tested by CCK-8 assay. Briefly, cells were seeded in 96-well plate with about 5 × 10^3 cells in each well. The cells were treated with P6 or Ara-C (0–10 µM) after 24 h of incubation. CCK-8 reagent ([…]) was added to each well after 72 h of incubation, and cells were incubated at 37°C for 4 h. The light absorbance at 450 nm was measured by using an Opsys microplate reader (Dynex Technologirs, Chantilly, VA, United States). Results are illustrated as percent of cell viability normalized to DMSO-treated control cells.

MOLM-13 cells = test: In vitro antiproliferative CCK-8 assay, MOLM-13; assay type: cell-based; conditions: Homo sapiens, 72 h, read-out: IC50 growth inhibition MOLM-13
Experimental: as §1

SEM cells = test: In vitro antiproliferative CCK-8 assay, SEM; assay type: cell-based; conditions: 72 h, read-out: IC50 growth inhibition SEM
Experimental: as §1

MV4-11 cells = test: In vitro antiproliferative CCK-8 assay, MV4-11; assay type: cell-based; conditions: Homo sapiens, 72 h, read-out: IC50 growth inhibition MV4-11
Experimental: as §1

[1] = tested on: THP-1, MOLM-13, SEM and MV4-11 cells; test: Cell apoptosis analysis, MLLr leukemic cells; assay type: cell-based; conditions: 72 h, flow cytometry
Experimental: THP-1, MOLM-13, SEM and MV4-11 cells were treated with P6 (0.45–4 µM) or Ara-C (0.1–2.0 µM) for 72 h, collected and resuspended in 1× binding buffer. Cells were incubated with FITC Annexin V and PI double labeling for 30 min in the dark at room temperature and measured by flow cytometry.

| inhibition at 10 µM (SIRT3) [%] | SMILES | inhibition at 1 µM (THP-1 cells) [%] | further results |
| --- | --- | --- | --- |
| – | c1cncc(-c2c[nH]nn2)c1 [Compound 3-TYP] | – | IC50 (SIRT1): 88 nM; IC50 (SIRT2): 92 nM |
| 23.5 ± 2.13 | C=CC(=O)Nc1ccc(-c2cc(C(=O)N3CCN(C(=O)OC(C)(C)C)CC3)c3ccccc3n2)cc1 [Compound P2, 4-[2-(4-Acryloylamino-phenyl)-quinoline-4-carbonyl]-piperazine-1-carboxylic acid tert-butyl ester] | 26.4 ± 1.55 | – |
| 22.2 ± 1.72 | C=CC(=O)Nc1ccc(-c2cc(C(=O)Nc3cccc(OC)c3)c3ccccc3n2)cc1 [Compound P21, 2-(4-Acryloylamino-phenyl)-quinoline-4-carboxylic acid (3-methoxy-phenyl)-amide] | 35.4 ± 1.58 | – |
| – | Nc1ccn([C@@H]2O[C@H](CO)[C@@H](O)[C@@H]2O)c(=O)n1 [Ara-C, Cytarabine, reference compound] | 80.4 ± 3.22 | IC50 (THP-1 cells; 72 h, CCK-8, read-out: IC50 growth inhibition THP-1): 520 nM; IC50 (MOLM-13 cells): 60 nM; IC50 (SEM cells): 60 nM; IC50 (MV4-11 cells): 540 nM; induction of apoptosis [1]: obvious apoptosis |
| 30.6 ± 2.45 | C=CC(=O)Nc1ccc(-c2cc(C(=O)N3CCN(C(C)C)CC3)c3ccccc3n2)cc1 [Compound P3, N-{4-[4-(4-Isopropyl-piperazine-1-carbonyl)-quinolin-2-yl]-phenyl}-acrylamide] | 8.78 ± 0.37 | – |
| 45.1 ± 2.55 | C=CC(=O)Nc1ccc(-c2cc(C(=O)Nc3ccc4c(c3)OCO4)c3ccccc3n2)cc1 [Compound P20, 2-(4-Acryloylamino-phenyl)-quinoline-4-carboxylic acid benzo [1,3]dioxol-5-ylamide] | 28.1 ± 1.76 | – |
| 38.9 ± 2.62 | C=CC(=O)Nc1ccc(-c2cc(C(=O)Nc3ccc(C)cc3)c3ccccc3n2)cc1 [Compound P12, 2-(4-Acryloylamino-phenyl)-quinoline-4-carboxylic acid p-tolylamide] | 72.8 ± 3.25 | – |
